Structures are written as SMILES. Activity calls are given as the source filed them. No cut-off for these calls is given here.

The source of these data is ChEMBL document CHEMBL5120799, “A Nrf-2 Stimulatory Hydroxylated Cannabidiol Derivative from Hemp (Cannabis sativa)” (J Nat Prod, 2022).

Experiment [1] deals with T1, Nuclear factor erythroid 2-related factor 2 (Homo sapiens) (UniProt Q16236).
T1 sequence (whole entry): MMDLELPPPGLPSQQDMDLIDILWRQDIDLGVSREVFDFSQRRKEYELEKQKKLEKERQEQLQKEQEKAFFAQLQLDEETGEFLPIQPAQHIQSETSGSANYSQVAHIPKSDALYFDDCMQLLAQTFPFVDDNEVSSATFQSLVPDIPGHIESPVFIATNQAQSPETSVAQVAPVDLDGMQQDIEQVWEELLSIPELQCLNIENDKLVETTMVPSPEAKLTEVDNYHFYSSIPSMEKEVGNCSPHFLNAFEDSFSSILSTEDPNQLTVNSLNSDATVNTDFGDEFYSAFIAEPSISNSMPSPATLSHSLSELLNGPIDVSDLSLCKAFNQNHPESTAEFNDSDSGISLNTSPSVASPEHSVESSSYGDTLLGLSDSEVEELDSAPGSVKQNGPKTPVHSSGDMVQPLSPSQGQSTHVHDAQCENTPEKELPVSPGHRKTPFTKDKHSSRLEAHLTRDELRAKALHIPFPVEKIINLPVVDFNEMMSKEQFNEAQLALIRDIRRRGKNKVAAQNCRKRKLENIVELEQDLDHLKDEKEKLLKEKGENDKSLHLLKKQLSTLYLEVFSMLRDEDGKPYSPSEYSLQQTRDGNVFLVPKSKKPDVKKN
Description: Activation of Nrf2 transcriptional activity in human HaCaT-ARE-Luc cells at 1 uM incubated for 6 hrs by luciferase activity assay relative to control. It is filed as cell-based.

The target in experiment [2] is T1, Nuclear factor erythroid 2-related factor 2 (Homo sapiens). Description: Activation of Nrf2 transcriptional activity in human HaCaT-ARE-Luc cells at 10 uM incubated for 6 hrs by luciferase activity assay relative to control. Conditions: filed as activator. It is filed as cell-based.
Experiment [3] shares this target. Description: Activation of Nrf2 transcriptional activity in human HaCaT-ARE-Luc cells at 25 uM incubated for 6 hrs by luciferase activity assay relative to control. Type of experiment: cell-based. The following applies: filed as activator.
Experiment [4] deals with HaCaT. Description: Inhibition of TBHP-induced ROS production in human HaCaT cells assessed as reduction on intracellular ROS level at 1 to 25 uM pretreated for 30 mins followed by TBHP stimulation and measured after 3 hrs by DCFH2-DA staining analysis. Type of experiment: functional, cell-based. The following applies: dose 1-25 µM, time 3.5 hrs, DDE = dose-dependent effect.

In experiment [5] the test system is HaCaT. The experiment can be described thus: Inhibition of TBHP-induced ROS production in human HaCaT cells assessed as reduction on intracellular ROS level at 25 uM pretreated for 30 mins followed by TBHP stimulation and measured after 3 hrs by DCFH2-DA staining analysis. It is filed as functional, cell-based. The following applies: time 3.5 hrs.
The target in experiment [6] is T1, Nuclear factor erythroid 2-related factor 2 (Homo sapiens). Description: Activation of Nrf2 transcriptional activity in human HaCaT-ARE-Luc cells at 1 to 25 uM incubated for 6 hrs by luciferase activity assay. It is filed as cell-based. Conditions: filed as activator, dose 1-25 µM.

Take `C=C1CC[C@@H](C(=C)C)[C@H](c2c(O)cc(CCCCC)cc2O)[C@H]1O`: the figures for the Activity in experiment [1], in experiment [2] and in experiment [3] were 20%, 144% and 202%, respectively. Also, in the experiment with HaCaT [4], the inhibition result was “Dde”. In the experiment with HaCaT [5], the inhibition result is “Active”.
Regarding `C=C(C)[C@@H]1CCC(C)=C[C@H]1c1c(O)cc(CCCCC)cc1O`, in experiment [6], the outcome was Active.
